Test results taken from patent US12331096B2, “Binding domain mapping and compounds, compositions, complexes, methods, and kits related thereto” (GEORGE MASON RESEARCH FOUNDATION, INC., priority 2019, dated 2025).
Several values for one entry are separate records, joined by “and”; a condition that tells them apart may be missing. Identical values can stand only once. Entries after “also recorded” stand apart in the source; their conditions may differ. Like-named read-outs stand apart in the source and are kept apart here. Where a SMILES comes first, the peptide text is derived from it. Bridges are numbered along the chain shown (N, C = ends).

Columns and labels:
[1] = Solubility of azo coupling products synthesized in PBS; assay type: physicochemical; details: synthesized at room temperature in PBS, pH 7.4
Procedure: Dyes stocks were prepared to 1 mg/mL final concentrations. Synthesis was conducted as follows: Fast Dyes were mixed in 1× Dubelcco's PBS with an excess of coupling agent (3-fold molar concentration of coupling agent to fast dye) and vortexed. Reactions were conducted at room temperature and proceeded in the first 5 minutes of mixing with evident color change. Dye stocks were allowed to incubate at room temperature for one week prior to use. Dyes were used without further purification and were diluted prior to use in protein painting. Dye reagents were vortexed before each use, and stable for >6 months at room temperature. Reactions were monitored by reverse phase C18 TLC (mobile phase of 60% methanol, 40% water) to determine number of product bands. […] The two major product bands were separated via reverse-phase flash column chromatography conducted essentially as described previously using a 20 mm column, stationary phase of COSMOSIL C18-OPN reverse phase resin (Nacalai USA, Catalog number 37842-66), and mobile phase of 60% methanol or 30% acetonitrile. Fractions containing individual bands were identified via reverse-phase TLC and were pooled and dried. Pure samples by TLC were analyzed by NMR to confirm structure of each major product.
Two different fast dyes were used to synthesize new dye candidates. Fast Blue B was chosen to synthesize new diazo dyes, as it is structurally similar to the core of TB, while Fast Red TR was chosen to synthesize new halogenated small dyes. Four diverse coupling agents, 4-Amino-1-naphthalenesulfonic Acid or naphthionic acid, 4-Amino-5-hydroxy-2,7-naphthalenedisulfonic acid or H-acid, 7-Amino-1,3-naphthalenedisulfonic acid or Amino G Acid, and 2-napthol were chosen to evaluate the role of sulfonates on specific binding. […] The remaining 5 candidate dyes, Fast Blue B+Naphthionic Acid (FBBNA), Fast Blue B+H-acid (FBBHA), Fast Red TR+Naphthionic Acid (FRNA), Fast Red TR+H-acid (FRHA), and Fast Red TR+Amino G Acid (FRAGA), were all evaluated for their specific binding with respect to thyroglobulin (see Table 3).

Thyroglobulin = molecular target: T1, Thyroglobulin (Bos taurus, UniProt P01267); test: Specific binding of dye to thyroglobulin (gel filtration, UV-Vis); details: for Specific binding to thyroglobulin at equilibrium: Vmax of Michaelis-Menten fit, no CuSO4
T1 construct: purchased Sigma Aldrich 9010-34-8
Procedure: (§1) To determine specific binding of each candidate dye, thyroglobulin was primarily used as a model protein, because its large surface area facilitated more molecules of dye binding per protein, and thus higher signal to noise ratios versus smaller proteins. Candidate dyes were examined on a UV-2501PC UV-Vis spectrometer to determine Amax values. Standard curves were prepared for quantification of molecules of dye; dyes were eliminated from consideration if sensitivity of detection was not greater than 10 μM in solution. Thyroglobulin (1-5 μM) was mixed with 100-fold molar excess of candidate dye dissolved in PBS and allowed to associate between 15 seconds to 2 hours at room temperature. After association, 50 μL of the dye-protein mixtures were passed through a mini Quick Spin Oligo Column (Sephadex G-25 resin, Roche) and centrifugated at 1000× g for 1 min to separate unbound dye from the protein-dye complex. The collected flow-through was examined with UV-Vis spectroscopy, and quantity of dye in the flow-through was calculated using the previously developed standard curve for the dye. Specific Binding was defined as [Paint Molecules Bound]/[Protein]. A plot of specific binding versus time was fit with the Michaelis-Menton equation in GraphPad Prism 6 as a model to determine association kinetics and maximum dye binding, where Vmax represents the maximum amount of dye molecules that bind to the protein at equilibrium. All curves are fit to data from two independent experiments. Specific binding of dye candidates to lysozyme was conducted similarly, with the change that lysozyme (2-10 μM) was mixed with 50-fold molar excess of dye candidate dissolved in PBS and allowed to associate for the indicated time points.

[2] = Peptide solubility to 1 mM stock; details: solvent additive for 1 mM stock
Lysozyme = molecular target: T2, Lysozyme (Gallus gallus, UniProt P00698); test: Specific binding of dye to lysozyme
T2 construct: purchased Sigma Aldrich 12650-88-3
Procedure: as §1

bovine serum albumin = bovine serum albumin (Bos taurus, UniProt P02769); test: Circular dichroism spectroscopy of BSA with dye, urea denaturation
Procedure: Circular dichroism spectroscopy was conducted using bovine serum albumin on a Jasco J-1500 CD spectrometer from 190-350 nm using a 1 mm cuvette. BSA stock solutions were prepared to 2 mg/mL from lyophilized protein in sterile-filtered 10 mM phosphate buffer, pH 7.0 and centrifuged at 16,000×g to remove particulates. Concentration was determined via A280 using an extinction coefficient of 43,824 M^−1 cm^−1 for BSA. Stocks were stored at −80° C. and diluted to the appropriate concentration in sterile-filtered MilliQ water for each experiment. Final concentration of BSA in each sample was 2 μM (0.12 mg/mL). Samples were incubated for 10 minutes with dye at a molar ratio equal to the specific binding of the molecule to the protein (i.e. 18 μM of FBBNA for 1 μM of BSA). Controls were incubated with equivolume amounts of MilliQ water in place of dye. […] Helical content of BSA spectra was determined using the online server DICHROWEB (Whitmore, L., and Wallace, B. A., “Protein secondary structure analyses from circular dichroism spectroscopy: methods and reference databases.” Biopolymers. 89, 392-400, 2008; Whitmore, L., and Wallace, B. A., “DICHROWEB, an online server for protein secondary structure analyses from circular dichroism spectroscopic data.” Nucleic Acids Res. 32, W668-673, 2004) to confirm native structure.

T1 sequence (P01267 20-2769): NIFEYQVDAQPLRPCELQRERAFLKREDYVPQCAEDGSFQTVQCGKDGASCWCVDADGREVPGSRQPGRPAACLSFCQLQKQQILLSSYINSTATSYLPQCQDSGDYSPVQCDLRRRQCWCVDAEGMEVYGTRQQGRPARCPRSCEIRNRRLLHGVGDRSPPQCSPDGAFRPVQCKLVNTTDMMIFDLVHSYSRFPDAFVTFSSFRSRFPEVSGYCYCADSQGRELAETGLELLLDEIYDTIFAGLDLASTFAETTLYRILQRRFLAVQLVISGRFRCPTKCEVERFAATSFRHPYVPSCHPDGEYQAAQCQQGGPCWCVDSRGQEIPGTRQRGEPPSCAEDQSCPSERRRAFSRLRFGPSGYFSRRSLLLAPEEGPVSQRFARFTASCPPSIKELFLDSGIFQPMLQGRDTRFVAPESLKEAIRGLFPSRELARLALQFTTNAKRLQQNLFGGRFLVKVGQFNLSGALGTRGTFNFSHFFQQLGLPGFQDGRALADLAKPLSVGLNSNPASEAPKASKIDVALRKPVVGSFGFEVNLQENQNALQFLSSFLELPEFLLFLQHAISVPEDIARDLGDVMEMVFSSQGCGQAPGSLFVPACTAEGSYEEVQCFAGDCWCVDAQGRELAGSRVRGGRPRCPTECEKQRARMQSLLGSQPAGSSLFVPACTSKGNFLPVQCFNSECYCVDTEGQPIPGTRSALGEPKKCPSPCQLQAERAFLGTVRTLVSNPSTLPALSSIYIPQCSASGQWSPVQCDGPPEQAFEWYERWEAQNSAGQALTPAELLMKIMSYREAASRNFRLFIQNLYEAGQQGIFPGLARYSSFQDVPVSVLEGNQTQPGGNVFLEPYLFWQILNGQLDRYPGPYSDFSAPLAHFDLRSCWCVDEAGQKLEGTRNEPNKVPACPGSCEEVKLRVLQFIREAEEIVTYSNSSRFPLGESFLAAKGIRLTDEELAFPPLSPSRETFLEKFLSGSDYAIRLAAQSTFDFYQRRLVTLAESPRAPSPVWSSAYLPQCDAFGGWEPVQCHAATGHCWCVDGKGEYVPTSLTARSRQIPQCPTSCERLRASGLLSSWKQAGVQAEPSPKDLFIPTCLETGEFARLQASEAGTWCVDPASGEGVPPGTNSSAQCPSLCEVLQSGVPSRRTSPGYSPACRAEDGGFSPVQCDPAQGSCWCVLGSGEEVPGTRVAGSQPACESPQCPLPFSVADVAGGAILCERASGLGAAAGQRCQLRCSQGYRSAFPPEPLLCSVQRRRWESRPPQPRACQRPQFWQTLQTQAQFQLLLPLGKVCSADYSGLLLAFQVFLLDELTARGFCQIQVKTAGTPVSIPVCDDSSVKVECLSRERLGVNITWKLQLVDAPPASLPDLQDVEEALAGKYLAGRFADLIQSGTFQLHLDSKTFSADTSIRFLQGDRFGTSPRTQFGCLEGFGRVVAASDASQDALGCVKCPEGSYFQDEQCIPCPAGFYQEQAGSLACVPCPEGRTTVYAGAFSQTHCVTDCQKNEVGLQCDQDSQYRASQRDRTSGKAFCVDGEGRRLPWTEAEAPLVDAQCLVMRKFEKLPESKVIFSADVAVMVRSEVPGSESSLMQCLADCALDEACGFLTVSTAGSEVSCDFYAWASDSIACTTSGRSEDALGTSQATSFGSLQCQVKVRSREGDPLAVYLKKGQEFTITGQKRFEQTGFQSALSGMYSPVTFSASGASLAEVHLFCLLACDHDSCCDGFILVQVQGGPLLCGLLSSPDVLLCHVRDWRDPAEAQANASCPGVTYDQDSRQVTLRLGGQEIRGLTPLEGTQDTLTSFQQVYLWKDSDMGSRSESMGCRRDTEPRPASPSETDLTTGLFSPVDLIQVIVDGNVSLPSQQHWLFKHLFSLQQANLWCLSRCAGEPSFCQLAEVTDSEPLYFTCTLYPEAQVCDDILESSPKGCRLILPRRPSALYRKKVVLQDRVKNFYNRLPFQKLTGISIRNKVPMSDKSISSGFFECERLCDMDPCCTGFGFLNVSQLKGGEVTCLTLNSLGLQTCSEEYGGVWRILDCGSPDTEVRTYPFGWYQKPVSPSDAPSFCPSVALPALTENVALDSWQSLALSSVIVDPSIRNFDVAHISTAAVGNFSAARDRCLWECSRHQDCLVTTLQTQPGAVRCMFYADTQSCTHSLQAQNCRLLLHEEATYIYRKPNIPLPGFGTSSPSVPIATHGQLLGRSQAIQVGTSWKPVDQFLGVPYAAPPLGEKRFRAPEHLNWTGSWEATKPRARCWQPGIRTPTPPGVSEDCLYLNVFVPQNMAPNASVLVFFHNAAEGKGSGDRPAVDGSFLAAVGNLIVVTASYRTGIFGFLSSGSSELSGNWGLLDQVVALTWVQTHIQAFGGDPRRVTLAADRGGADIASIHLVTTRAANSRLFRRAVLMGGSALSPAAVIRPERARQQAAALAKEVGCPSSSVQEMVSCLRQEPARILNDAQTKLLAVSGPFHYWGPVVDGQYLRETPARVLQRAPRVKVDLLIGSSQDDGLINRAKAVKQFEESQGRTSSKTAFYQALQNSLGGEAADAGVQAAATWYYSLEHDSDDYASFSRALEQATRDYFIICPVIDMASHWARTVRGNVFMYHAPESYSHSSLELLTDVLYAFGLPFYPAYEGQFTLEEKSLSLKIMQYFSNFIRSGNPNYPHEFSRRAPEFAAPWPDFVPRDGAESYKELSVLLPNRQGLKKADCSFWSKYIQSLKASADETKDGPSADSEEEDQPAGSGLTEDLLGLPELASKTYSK
T2 sequence (P00698 19-147): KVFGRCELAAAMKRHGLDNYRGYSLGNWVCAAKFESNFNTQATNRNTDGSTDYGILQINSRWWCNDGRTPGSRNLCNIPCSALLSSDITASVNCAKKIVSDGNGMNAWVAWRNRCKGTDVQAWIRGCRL
Chain of bovine serum albumin (P02769 25-607): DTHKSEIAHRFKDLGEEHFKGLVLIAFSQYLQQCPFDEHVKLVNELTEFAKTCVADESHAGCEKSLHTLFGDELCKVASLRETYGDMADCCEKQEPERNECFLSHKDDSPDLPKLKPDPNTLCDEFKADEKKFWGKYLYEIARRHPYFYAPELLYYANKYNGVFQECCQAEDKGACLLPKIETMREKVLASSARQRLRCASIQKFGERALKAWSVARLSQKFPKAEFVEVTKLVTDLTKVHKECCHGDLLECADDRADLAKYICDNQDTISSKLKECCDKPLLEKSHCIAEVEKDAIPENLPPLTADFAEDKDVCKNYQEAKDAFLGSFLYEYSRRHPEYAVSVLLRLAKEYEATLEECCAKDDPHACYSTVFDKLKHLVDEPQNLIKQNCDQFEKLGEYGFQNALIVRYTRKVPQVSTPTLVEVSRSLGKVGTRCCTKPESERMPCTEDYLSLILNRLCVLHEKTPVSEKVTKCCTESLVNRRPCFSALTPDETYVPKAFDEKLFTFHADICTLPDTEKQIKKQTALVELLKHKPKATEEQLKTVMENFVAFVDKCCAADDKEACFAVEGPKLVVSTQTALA

COc1cc(-c2ccc(N=Nc3c(O)ccc4ccccc34)c(OC)c2)ccc1N=Nc1c(O)ccc2ccccc12 [FBB2N]
Solubility of dye product [1]: FBB2N: Dark Blue Pigment Insoluble

Cc1cc(Cl)ccc1N=Nc1c(O)ccc2ccccc12 [FR2N]
Solubility of dye product [1]: FR2N: Bright Orange Pigment Insoluble

Cc1cc(Cl)ccc1N=Nc1cc(S(=O)(=O)O)c2ccccc2c1N [FRNA]
Binding to thyroglobulin (in words) (Thyroglobulin): None of the Fast Red TR-based dyes including FRNA, FRHA, and FRAGA showed any significant binding | Specific binding to thyroglobulin (Thyroglobulin; candidate dyes, Tables 3 and 4): No binding | Solubility of dye product [1]: Soluble

CC[C@H](C)[C@H](NC(=O)[C@H](CCSC)NC(=O)[C@H](CS)NC(=O)[C@H](CCCNC(=N)N)NC(=O)[C@@H](N)Cc1ccc(O)cc1)C(=O)N[C@@H](CO)C(=O)N[C@@H](Cc1ccc(O)cc1)C(=O)NCC(=O)NCC(=O)N[C@@H](C)C(=O)N[C@@H](CC(=O)O)C(=O)N[C@@H](Cc1ccc(O)cc1)C(=O)N[C@@H](CCCCN)C(=O)N[C@@H](CCCNC(=N)N)C(=O)N[C@H](C(=O)N[C@H](C(=O)N[C@H](C(=O)O)C(C)C)[C@@H](C)O)[C@@H](C)CC [Peptide 1]
Solubility (to 1 mM) [2]: 60% CH3COOH, and 14% CH3CN

CC[C@H](C)[C@@H]1NC(=O)[C@H](CCSC)NC(=O)[C@H](C)NC(=O)[C@H](CCCNC(=N)N)NC(=O)[C@H](Cc2ccc(O)cc2)NC(=O)[C@@H](N)CSSC[C@@H](C(=O)O)NC(=O)[C@H]([C@@H](C)O)NC(=O)[C@H]([C@@H](C)CC)NC(=O)[C@H](CCCNC(=N)N)NC(=O)[C@H](CCCCN)NC(=O)[C@H](Cc2ccc(O)cc2)NC(=O)[C@H](CC(=O)O)NC(=O)[C@H](C)NC(=O)CNC(=O)CNC(=O)[C@H](Cc2ccc(O)cc2)NC(=O)[C@H](CO)NC1=O [Peptide 2] (H-CYRAMISYGGADYKRITC-OH; disulfide 1-18)
Solubility (to 1 mM) [2]: 40% CH3COOH

Cc1cc(-c2ccc(/N=N/c3c(S(=O)(=O)O)cc4cc(S(=O)(=O)O)cc(N)c4c3O)c(C)c2)ccc1/N=N/c1c(S(=O)(=O)O)cc2cc(S(=O)(=O)O)cc(N)c2c1O [TB]
Binding to thyroglobulin (in words) (Thyroglobulin): least specific binding | Specific binding to thyroglobulin at equilibrium (Thyroglobulin): 3 molecules | Binding to lysozyme (in words) (Lysozyme): unable to bind | Binding to lysozyme (in words) (Lysozyme; listed as Trypan Blue): not to lysozyme

sodium 4-(4-(benzyl-et-amino)-ph-azo)-2,5-di-cl-benzenesulphonate [AO50]
Specific binding to thyroglobulin at equilibrium (Thyroglobulin): 15 molecules | Effect of dye on native secondary structure of BSA (CD) (bovine serum albumin; 10 min incubation with dye): does not change | Denaturation of BSA by urea in the presence of dye (CD) (bovine serum albumin; urea 2M, 4M, 6M (FBBNA), 4M urea (AO50, combination)): attenuated; also recorded: partially stabilize | Binding to lysozyme (in words) (Lysozyme): able to bind | Specific binding to lysozyme at equilibrium (Lysozyme; Vmax of Michaelis-Menten fit): 1 molecule
